{"source": "patent US6479435B1", "about": "“Diaryl ethers and processes for their preparation and herbicidal and desiccant compositions containing them” (ISK Americas Incorporated, priority 1997, dated 2002)", "format_in_all_cases": "in vivo", "key": {"[1]": {"tested_on": "common ragweed (Ambrosia artemisiifolia L., AMBEL)", "test": "Post-emerge greenhouse herbicide test, phytotoxicity rating", "details": "14 days after application, scale 0-100", "how_it_was_run": "(§1)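 Plants at the 2-3 leaf stage, sown 8-21 days earlier, were track-sprayed post-emergence with compound in acetone plus 0.25% v/v non-ionic surfactant at 63-1000 g ai/ha (187 l/ha). Damage was rated at 14 days on a 0-100 scale (0 none, 100 all plants dead), for both crop injury and weed control.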"}, "[2]": {"tested_on": "ivyleaf morningglory (Ipomoea hederacea, IPOHE)", "test": "Post-emerge greenhouse herbicide test, phytotoxicity rating", "details": "14 days after application, scale 0-100", "how_it_was_run": "as §1"}, "[3]": {"tested_on": "green foxtail (Setaria viridis, SETVI)", "test": "Post-emerge greenhouse herbicide test, phytotoxicity rating", "details": "14 days after application, scale 0-100", "how_it_was_run": "as §1"}, "[4]": {"tested_on": "redroot pigweed (Amaranthus retroflexus, AMARE)", "test": "Post-emerge greenhouse herbicide test, phytotoxicity rating", "details": "14 days after application, scale 0-100", "how_it_was_run": "as §1"}, "[5]": {"tested_on": "lambsquarters (Chenopodium album, CHEAL)", "test": "Post-emerge greenhouse herbicide test, phytotoxicity rating", "details": "14 days after application, scale 0-100", "how_it_was_run": "as §1"}, "[6]": {"tested_on": "sicklepod (Cassia obtusifolia, CASOB)", "test": "Post-emerge greenhouse herbicide test, phytotoxicity rating", "details": "14 days after application, scale 0-100", "how_it_was_run": "as §1"}, "[7]": {"tested_on": "velvetleaf (Abutilon theophrasti, ABUTH)", "test": "Post-emerge greenhouse herbicide test, phytotoxicity rating", "details": "14 days after application, scale 0-100", "how_it_was_run": "as §1"}, "[8]": {"tested_on": "barnyardgrass (Echinochloa crusgalli, ECHCG)", "test": "Post-emerge greenhouse herbicide test, phytotoxicity rating", "details": "14 days after application, scale 0-100", "how_it_was_run": "as §1"}, "[9]": {"tested_on": "Johnsongrass (Sorghum halepense, SORHA)", "test": "Post-emerge greenhouse herbicide test, phytotoxicity rating", "details": "14 days after application, scale 0-100", "how_it_was_run": "as §1"}, "[10]": {"tested_on": "large crabgrass (Digitaria sanguinalis, DIGSA)", "test": "Post-emerge greenhouse herbicide test, phytotoxicity rating", "details": "14 days after application, scale 0-100", "how_it_was_run": "as §1"}, "[11]": {"tested_on": "soybean (Glycine max L., var. Pella 86, SOY)", "test": "Pre-emerge greenhouse test, crop damage rating", "design": "key to SOY crop damage rating: 0 = no damage, 100 = complete death of all plants", "details": "14 days after application, rating scale 0-100", "how_it_was_run": "(§2)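 Seeds sown in sandy loam one day before track-sprayer application of acetone solutions at 125–1000 g ai/ha (187 l/ha), then surface-watered to incorporate and bottom-watered. Injury scored visually at 14 days on a 0–100 scale (0 no damage, 100 complete death).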"}, "[12]": {"tested_on": "upland rice (Oryza sp., var.Tebonnet, RICE)", "test": "Post-emerge greenhouse test, crop damage rating", "details": "14 days after application, scale 0-100", "how_it_was_run": "as §1"}, "[13]": {"tested_on": "field corn (Zea mays L., var. Dekalb 535, CORN)", "test": "Post-emerge greenhouse test, crop damage rating", "details": "14 days after application, scale 0-100", "how_it_was_run": "as §1"}, "[14]": {"tested_on": "soybean (Glycine max L., var. Pella 86, SOY)", "test": "Post-emerge greenhouse test, crop damage rating", "design": "key to crop damage rating SOY: 0-100 scale: 0 = no damage, 100 = complete death of all plants", "details": "14 days after application, scale 0-100", "how_it_was_run": "as §1"}, "[15]": {"tested_on": "upland rice (Oryza sp., var.Tebonnet, RICE)", "test": "Pre-emerge greenhouse test, crop damage rating", "details": "14 days after application, rating scale 0-100", "how_it_was_run": "as §2"}, "[16]": {"tested_on": "field corn (Zea mays L., var. Dekalb 535, CORN)", "test": "Pre-emerge greenhouse test, crop damage rating", "details": "14 days after application, rating scale 0-100", "how_it_was_run": "as §2"}, "[17]": {"tested_on": "ivyleaf morningglory (Ipomoea hederacea, IPOHE)", "test": "Pre-emerge greenhouse herbicide test, phytotoxicity rating", "details": "14 days after application, rating scale 0-100", "how_it_was_run": "as §2"}, "[18]": {"tested_on": "green foxtail (Setaria viridis, SETVI)", "test": "Pre-emerge greenhouse herbicide test, phytotoxicity rating", "details": "14 days after application, rating scale 0-100", "how_it_was_run": "as §2"}, "[19]": {"tested_on": "redroot pigweed (Amaranthus retroflexus, AMARE)", "test": "Pre-emerge greenhouse herbicide test, phytotoxicity rating", "details": "14 days after application, rating scale 0-100", "how_it_was_run": "as §2"}, "[20]": {"tested_on": "lambsquarters (Chenopodium album, CHEAL)", "test": "Pre-emerge greenhouse herbicide test, phytotoxicity rating", "details": "14 days after application, rating scale 0-100", "how_it_was_run": "as §2"}, "[21]": {"tested_on": "sicklepod (Cassia obtusifolia, CASOB)", "test": "Pre-emerge greenhouse herbicide test, phytotoxicity rating", "details": "14 days after application, rating scale 0-100", "how_it_was_run": "as §2"}, "[22]": {"tested_on": "common ragweed (Ambrosia artemisiifolia L., AMBEL)", "test": "Pre-emerge greenhouse herbicide test, phytotoxicity rating", "details": "14 days after application, rating scale 0-100", "how_it_was_run": "as §2"}, "[23]": {"tested_on": "velvetleaf (Abutilon theophrasti, ABUTH)", "test": "Pre-emerge greenhouse herbicide test, phytotoxicity rating", "details": "14 days after application, rating scale 0-100", "how_it_was_run": "as §2"}, "[24]": {"tested_on": "barnyardgrass (Echinochloa crusgalli, ECHCG)", "test": "Pre-emerge greenhouse herbicide test, phytotoxicity rating", "details": "14 days after application, rating scale 0-100", "how_it_was_run": "as §2"}, "[25]": {"tested_on": "Johnsongrass (Sorghum halepense, SORHA)", "test": "Pre-emerge greenhouse herbicide test, phytotoxicity rating", "details": "14 days after application, rating scale 0-100", "how_it_was_run": "as §2"}, "[26]": {"tested_on": "large crabgrass (Digitaria sanguinalis, DIGSA)", "test": "Pre-emerge greenhouse herbicide test, phytotoxicity rating", "details": "14 days after application, rating scale 0-100", "how_it_was_run": "as §2"}}}
{"smiles": "CC(C)S(=O)(=O)c1cccnc1Oc1cc(-n2c(=O)n3n(c2=S)CCCC3)c(F)cc1Cl", "note": "[Compound 8-37]", "values": [{"measurement": "phytotoxicity rating AMBEL", "setting": "[1]; rate 63 g ai/ha", "result": 30}, {"measurement": "phytotoxicity rating AMBEL", "setting": "[1]; rate 500 g ai/ha", "result": 60}, {"measurement": "phytotoxicity rating IPOHE", "setting": "[2]; rate 63 g ai/ha", "result": 95}, {"measurement": "phytotoxicity rating IPOHE", "setting": "[2]; rate 500 g ai/ha", "result": 80}, {"measurement": "phytotoxicity rating SETVI", "setting": "[3]; rate 63 g ai/ha", "result": 0}, {"measurement": "phytotoxicity rating SETVI", "setting": "[3]; rate 500 g ai/ha", "result": 30}, {"measurement": "phytotoxicity rating AMARE", "setting": "[4]; rate 63 g ai/ha", "result": 90}, {"measurement": "phytotoxicity rating AMARE", "setting": "[4]; rate 500 g ai/ha", "result": 95}, {"measurement": "phytotoxicity rating CHEAL", "setting": "[5]; rate 63 g ai/ha", "result": 90}, {"measurement": "phytotoxicity rating CHEAL", "setting": "[5]; rate 500 g ai/ha", "result": 90}, {"measurement": "phytotoxicity rating CASOB", "setting": "[6]; rate 63 g ai/ha", "result": 100}, {"measurement": "phytotoxicity rating CASOB", "setting": "[6]; rate 500 g ai/ha", "result": 95}, {"measurement": "phytotoxicity rating ABUTH", "setting": "[7]; rate 63 g ai/ha", "result": 100}, {"measurement": "phytotoxicity rating ABUTH", "setting": "[7]; rate 500 g ai/ha", "result": 100}, {"measurement": "phytotoxicity rating ECHCG", "setting": "[8]; rate 63 g ai/ha", "result": 0}, {"measurement": "phytotoxicity rating ECHCG", "setting": "[8]; rate 500 g ai/ha", "result": 10}, {"measurement": "phytotoxicity rating SORHA", "setting": "[9]; rate 63 g ai/ha", "result": 0}, {"measurement": "phytotoxicity rating SORHA", "setting": "[9]; rate 500 g ai/ha", "result": 50}, {"measurement": "phytotoxicity rating DIGSA", "setting": "[10]; rate 63 g ai/ha", "result": 0}, {"measurement": "phytotoxicity rating DIGSA", "setting": "[10]; rate 500 g ai/ha", "result": 0}, {"measurement": "SOY crop damage rating", "setting": "[11]; Rate 125 g al/ha", "result": 50}, {"measurement": "SOY crop damage rating", "setting": "[11]; Rate 500 g al/ha", "result": 80}, {"measurement": "crop damage rating RICE", "setting": "[12]; rate 63 g ai/ha", "result": 0}, {"measurement": "crop damage rating RICE", "setting": "[12]; rate 500 g ai/ha", "result": 35}, {"measurement": "crop damage rating CORN", "setting": "[13]; rate 63 g ai/ha", "result": 0}, {"measurement": "crop damage rating CORN", "setting": "[13]; rate 500 g ai/ha", "result": 40}, {"measurement": "crop damage rating SOY", "setting": "[14]; rate 63 g ai/ha", "result": 90}, {"measurement": "crop damage rating SOY", "setting": "[14]; rate 500 g ai/ha", "result": 100}, {"measurement": "RICE crop damage rating", "setting": "[15]; Rate 125 g al/ha", "result": 10}, {"measurement": "RICE crop damage rating", "setting": "[15]; Rate 500 g al/ha", "result": 80}, {"measurement": "CORN crop damage rating", "setting": "[16]; Rate 125 g al/ha", "result": 0}, {"measurement": "CORN crop damage rating", "setting": "[16]; Rate 500 g al/ha", "result": 25}, {"measurement": "IPOHE phytotoxicity rating", "setting": "[17]; Rate 125 g al/ha", "result": 30}, {"measurement": "IPOHE phytotoxicity rating", "setting": "[17]; Rate 500 g al/ha", "result": 85}, {"measurement": "SETVI phytotoxicity rating", "setting": "[18]; Rate 125 g al/ha", "result": 100}, {"measurement": "SETVI phytotoxicity rating", "setting": "[18]; Rate 500 g al/ha", "result": 100}, {"measurement": "AMARE phytotoxicity rating", "setting": "[19]; Rate 125 g al/ha", "result": 100}, {"measurement": "AMARE phytotoxicity rating", "setting": "[19]; Rate 500 g al/ha", "result": 100}, {"measurement": "CHEAL phytotoxicity rating", "setting": "[20]; Rate 125 g al/ha", "result": 100}, {"measurement": "CHEAL phytotoxicity rating", "setting": "[20]; Rate 500 g al/ha", "result": 100}, {"measurement": "CASOB phytotoxicity rating", "setting": "[21]; Rate 125 g al/ha", "result": 0}, {"measurement": "CASOB phytotoxicity rating", "setting": "[21]; Rate 500 g al/ha", "result": 80}, {"measurement": "AMBEL phytotoxicity rating", "setting": "[22]; Rate 125 g al/ha", "result": 100}, {"measurement": "AMBEL phytotoxicity rating", "setting": "[22]; Rate 500 g al/ha", "result": 100}, {"measurement": "ABUTH phytotoxicity rating", "setting": "[23]; Rate 125 g al/ha", "result": 100}, {"measurement": "ABUTH phytotoxicity rating", "setting": "[23]; Rate 500 g al/ha", "result": 100}, {"measurement": "ECHCG phytotoxicity rating", "setting": "[24]; Rate 125 g al/ha", "result": 30}, {"measurement": "ECHCG phytotoxicity rating", "setting": "[24]; Rate 500 g al/ha", "result": 100}, {"measurement": "SORHA phytotoxicity rating", "setting": "[25]; Rate 125 g al/ha", "result": 20}, {"measurement": "SORHA phytotoxicity rating", "setting": "[25]; Rate 500 g al/ha", "result": 80}, {"measurement": "DIGSA phytotoxicity rating", "setting": "[26]; Rate 125 g al/ha", "result": 80}, {"measurement": "DIGSA phytotoxicity rating", "setting": "[26]; Rate 500 g al/ha", "result": 100}]}
